Values joined by “and” are separate entries in the source; they are usually repeats but may differ in a detail not shown here. Equal entries are not always repeated. Where two headings read alike, the source gives them in different places.
Experiments:
δ opioid receptor = molecular target: T1, δ opioid receptor (Cavia porcellus, UniProt A0A286XTF2); experiment: biochemical; type: binding, guinea pig
T1 construct: determined in guinea pig brain cells; from tissue; host or cells: guinea pig brain

κ opioid receptor = molecular target: T2, κ opioid receptor (Cavia porcellus, UniProt P41144); experiment: biochemical; type: binding, guinea pig
T2 construct: determined in guinea pig brain cells; from tissue; host or cells: guinea pig brain

human δ opioid receptor = molecular target: T3, human δ opioid receptor (Homo sapiens, UniProt P41143); experiment: binding to cloned human receptor in CHO cell membranes, [3H]Naltrindole
T3 construct: expressed in transfected cells; host or cells: Chinese hamster ovary (CHO) cells
Description: The affinities of the compounds of the invention were determined in guinea pig brain cells by the method described in Wentland et al. Biorgan. Med. Chem. Lett. 9. […] CHO cell membranes, expressing the human μ, δ, or κ opioid receptor, were incubated with 12 different concentrations of the compounds in the presence of receptor-specific radioligands at 25° C., in a final volume of 1 ml of 50 mM Tris-HCl, pH 7.5. Nonspecific binding was determined using 1 μM naloxone. Data are the mean value ±S.E.M. from three experiments, performed in triplicate.

human κ opioid receptor = molecular target: T4, human κ opioid receptor (Homo sapiens, UniProt P41145); experiment: biochemical; type: binding
T4 construct: expressed in transfected cells; host or cells: Chinese hamster ovary (CHO) cells

human μ opioid receptor = molecular target: T5, human μ opioid receptor (Homo sapiens, UniProt P35372); experiment: biochemical; type: binding
T5 construct: expressed in transfected cells; host or cells: Chinese hamster ovary (CHO) cells

mice = experiment: mouse acetic acid writhing test (antinociceptive activity); type: in vivo; details: for duration of action (antinociception, mouse writhing test): 1.0 mg/kg i.p.; for ED50 in the mouse acetic acid writhing test: administered i.c.v.
μ opioid receptor = μ opioid receptor (Cavia porcellus, UniProt A0ACM8Q262); type: binding, guinea pig
Chain of μ opioid receptor (A0ACM8Q262 1-400): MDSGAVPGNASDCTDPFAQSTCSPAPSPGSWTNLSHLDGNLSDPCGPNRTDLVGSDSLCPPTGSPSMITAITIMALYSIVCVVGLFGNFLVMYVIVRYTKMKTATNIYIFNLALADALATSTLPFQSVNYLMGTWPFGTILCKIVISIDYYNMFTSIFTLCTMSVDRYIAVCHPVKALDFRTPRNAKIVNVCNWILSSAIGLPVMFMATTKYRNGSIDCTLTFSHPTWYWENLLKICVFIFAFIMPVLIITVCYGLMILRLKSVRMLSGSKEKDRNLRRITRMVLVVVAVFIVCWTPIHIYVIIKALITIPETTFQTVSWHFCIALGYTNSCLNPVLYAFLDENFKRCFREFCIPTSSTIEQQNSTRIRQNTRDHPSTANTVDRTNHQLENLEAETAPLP

T2 sequence (P41144 whole entry): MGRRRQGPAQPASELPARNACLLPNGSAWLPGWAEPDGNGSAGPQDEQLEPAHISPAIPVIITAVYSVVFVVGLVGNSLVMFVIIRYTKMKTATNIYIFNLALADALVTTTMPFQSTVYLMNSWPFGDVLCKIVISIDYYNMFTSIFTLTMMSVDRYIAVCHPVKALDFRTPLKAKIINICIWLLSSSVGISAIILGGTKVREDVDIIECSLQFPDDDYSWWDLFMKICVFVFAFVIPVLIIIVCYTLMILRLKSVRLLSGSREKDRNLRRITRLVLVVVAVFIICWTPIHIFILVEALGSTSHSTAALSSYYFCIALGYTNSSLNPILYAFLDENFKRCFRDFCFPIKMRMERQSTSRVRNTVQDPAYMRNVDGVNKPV
T4 sequence (P41145 whole entry): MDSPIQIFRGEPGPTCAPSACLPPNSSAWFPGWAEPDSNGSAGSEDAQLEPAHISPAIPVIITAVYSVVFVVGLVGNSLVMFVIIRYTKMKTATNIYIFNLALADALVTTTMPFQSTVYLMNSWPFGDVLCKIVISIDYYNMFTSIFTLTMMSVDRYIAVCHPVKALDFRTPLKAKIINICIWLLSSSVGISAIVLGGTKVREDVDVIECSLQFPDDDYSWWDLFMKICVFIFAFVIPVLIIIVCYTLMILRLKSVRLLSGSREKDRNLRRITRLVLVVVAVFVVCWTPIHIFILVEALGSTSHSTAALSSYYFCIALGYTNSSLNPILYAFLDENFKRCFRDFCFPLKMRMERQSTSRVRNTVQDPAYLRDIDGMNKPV
T1 sequence (A0A286XTF2 1-366): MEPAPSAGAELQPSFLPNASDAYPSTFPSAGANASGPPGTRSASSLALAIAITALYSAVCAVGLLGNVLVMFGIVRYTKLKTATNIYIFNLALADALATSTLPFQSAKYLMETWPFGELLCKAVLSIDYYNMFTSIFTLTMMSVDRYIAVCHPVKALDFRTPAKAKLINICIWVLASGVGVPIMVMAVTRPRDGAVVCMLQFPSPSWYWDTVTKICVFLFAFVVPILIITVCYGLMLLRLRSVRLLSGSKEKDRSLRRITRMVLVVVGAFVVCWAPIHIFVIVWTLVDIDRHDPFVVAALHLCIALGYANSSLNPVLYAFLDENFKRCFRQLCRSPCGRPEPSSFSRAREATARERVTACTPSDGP
T3 sequence (P41143 whole entry): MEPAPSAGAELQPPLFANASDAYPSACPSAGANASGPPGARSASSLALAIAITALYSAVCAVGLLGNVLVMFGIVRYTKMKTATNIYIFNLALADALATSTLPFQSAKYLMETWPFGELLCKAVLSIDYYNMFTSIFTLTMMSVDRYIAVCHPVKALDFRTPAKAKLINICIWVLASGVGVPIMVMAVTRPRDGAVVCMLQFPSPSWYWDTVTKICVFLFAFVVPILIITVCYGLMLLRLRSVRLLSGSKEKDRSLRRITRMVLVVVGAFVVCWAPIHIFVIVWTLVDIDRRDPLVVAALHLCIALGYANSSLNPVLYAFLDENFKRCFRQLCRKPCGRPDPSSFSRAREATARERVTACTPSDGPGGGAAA
T5 sequence (P35372 whole entry): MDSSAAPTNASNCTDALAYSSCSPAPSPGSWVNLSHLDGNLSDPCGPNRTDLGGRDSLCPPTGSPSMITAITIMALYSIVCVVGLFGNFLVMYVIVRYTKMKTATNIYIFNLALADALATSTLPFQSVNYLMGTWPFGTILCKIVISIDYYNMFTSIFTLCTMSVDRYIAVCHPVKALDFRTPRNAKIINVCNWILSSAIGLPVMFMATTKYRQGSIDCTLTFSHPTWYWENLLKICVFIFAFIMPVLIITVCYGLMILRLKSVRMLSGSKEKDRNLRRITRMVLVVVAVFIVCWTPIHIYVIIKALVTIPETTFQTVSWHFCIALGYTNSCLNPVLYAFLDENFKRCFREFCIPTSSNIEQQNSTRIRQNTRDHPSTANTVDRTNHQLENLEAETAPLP

Compound: CC1C2C(=O)c3ccc(O)cc3[C@@]1(C)CCN2CC1CC1 (mixture of isomers) [(±)-ketocyclazocine, Ketocyclazocine, reference compound]
- Ki (δ opioid receptor; [3H] Naltrindole (δ)): 20 ± 2.7 nM
- Ki (κ opioid receptor; [3H] U69,593 (κ)): 1 ± 0.24 nM
- Ki (human δ opioid receptor): 130 ± 14 nM
- Ki (human κ opioid receptor): 1 ± 0.019 nM
- Ki (human μ opioid receptor): 1.7 ± 0.21 nM

Compound: C[C@H]1C2Cc3ccc(C(N)=O)cc3[C@@]1(C)CCN2CC1CC1 (racemic) [Example 4, (±)-3-(Cyclopropylmethyl)-1,2,3,4,5,6-hexahydro-cis-6,11-dimethyl-2,6-methano-3-benzazocin-8-carboxamide]
- duration of action (antinociception, mouse writhing test) (mice): 15 h
- ED50 in the mouse acetic acid writhing test (mice): 0.21 nmol
- Ki (δ opioid receptor; Ki [3H] Naltrindole (δ)): 8.3 nM and 4.9 nM

Compound: CC1C2Cc3ccc(NC(N)=O)cc3C1(C)CCN2CC1CC1 (racemic) [Example 36]
- Ki (δ opioid receptor; read-out: Ki [3H] Naltrindole (δ)): 90 ± 12 nM
- Ki (κ opioid receptor; read-out: Ki [3H] U69,593 (κ)): 15 ± 1.4 nM
- Ki (μ opioid receptor; read-out: Ki [3H] DAMGO (μ)): 20 ± 0.66 nM

Compound: CC1C2Cc3ccc(NC(N)=S)cc3C1(C)CCN2CC1CC1 (racemic) [Example 37]
- Ki (human δ opioid receptor; read-out: Ki [3H] Naltrindole (δ), Table 1, footnote a: chinese hamster ovary rather than guinea pig brain): 440 ± 72 nM
- Ki (human κ opioid receptor; read-out: Ki [3H] U69,593 (κ)): 4 ± 0.54 nM
- Ki (human μ opioid receptor; read-out: Ki [3H] DAMGO (μ)): 10 ± 1.7 nM

Compound: CC1C2Cc3ccc(NC=O)cc3C1(C)CCN2CC1CC1 (single isomer, unassigned) [Example 19a]
- Ki (δ opioid receptor; Ki [3H] Naltrindole (δ)): 9.8 ± 0.28 nM
- Ki (κ opioid receptor; Ki [3H] U69,593 (κ)): 0.49 ± 0.012 nM

Compound: CC1C2Cc3ccc(NC=O)cc3C1(C)CCN2CC1CC1 (single isomer, unassigned) [Example 19b]
- Ki (δ opioid receptor; Ki [3H] Naltrindole (δ)): > 10000 nM
- Ki (κ opioid receptor; Ki [3H] U69,593 (κ)): 900 ± 8.7 nM

Compound: CC1C2Cc3ccc(O)cc3C1(C)CCN2CC1CCCO1 (single isomer, unassigned) [Example 25, reference compound]
- Ki (δ opioid receptor; [3H] Naltrindole (δ)): 3.6 ± 0.4 nM
- Ki (κ opioid receptor; [3H] U69,593 (κ)): 0.09 ± 0.01 nM

Compound: CC1C2Cc3ccc(C(N)=O)cc3C1(C)CCN2CC1CCCO1 (single isomer, unassigned) [Example 26]
- Ki (δ opioid receptor; [3H] Naltrindole (δ)): 2 ± 0.15 nM
- Ki (κ opioid receptor; [3H] U69,593 (κ)): 0.089 ± 0.004 nM

Compound: CC1C2Cc3ccc(O)cc3C1(C)CCN2CC1CCCO1 (single isomer, unassigned) [Example 27, reference compound]
- Ki (δ opioid receptor; [3H] Naltrindole (δ)): 67 ± 4.3 nM
- Ki (κ opioid receptor; [3H] U69,593 (κ)): 1.5 ± 0.07 nM

Compound: CC1C2Cc3ccc(C(N)=O)cc3C1(C)CCN2CC1CCCO1 (single isomer, unassigned) [Example 28]
- Ki (δ opioid receptor; [3H] Naltrindole (δ)): 34 ± 0.1 nM
- Ki (κ opioid receptor; [3H] U69,593 (κ)): 2.8 ± 0.24 nM

Compound: C[C@H]1[C@H]2Cc3ccc(O)cc3[C@]1(C)CCN2CC1CC1 [(+)-Cyclazocine, Cyclazocine, reference compound]
- Ki (δ opioid receptor; read-out: [3H] Naltrindole (δ)): 1100 ± 63 nM
- Ki (κ opioid receptor; read-out: [3H]U69,593 (κ)): 76 ± 8.2 nM

Compound: C[C@H]1[C@H]2Cc3ccc(O)cc3[C@]1(C)CCN2CC1CC1 [(−)-Cyclazocine, Cyclazocine, reference compound]
- Ki (δ opioid receptor; read-out: [3H] Naltrindole (δ)): 0.58 ± 0.06 nM
- Ki (κ opioid receptor; read-out: [3H]U69,593 (κ)): 0.052 ± 0.009 nM

Compound: CNC(=O)c1ccc2c(c1)C1(C)CCN(CC3CC3)C(C2)C1C (stereo not drawn) [Example 8]
- Ki (δ opioid receptor; Ki [3H] Naltrindole (δ)): 63 ± 4.1 nM
- Ki (κ opioid receptor; Ki [3H] U69,593 (κ)): 2.6 ± 0.19 nM

Compound: CC1C2Cc3ccc(C(=O)NCc4ccccc4)cc3C1(C)CCN2CC1CC1 (stereo not drawn) [Example 9]
- Ki (δ opioid receptor; Ki [3H] Naltrindole (δ)): 140 ± 18 nM
- Ki (κ opioid receptor; Ki [3H] U69,593 (κ)): 78 ± 7.6 nM

Compound: CC1C2Cc3ccc(C(=O)NCCN(C)C)cc3C1(C)CCN2CC1CC1 (stereo not drawn) [Example 11]
- Ki (δ opioid receptor; Ki [3H] Naltrindole (δ)): 350 ± 51 nM
- Ki (κ opioid receptor; Ki [3H] U69,593 (κ)): 44 ± 11 nM

Compound: CC1C2Cc3ccc(C4=NCCN4)cc3C1(C)CCN2CC1CC1 (stereo not drawn) [Example 13]
- Ki (δ opioid receptor; Ki [3H] Naltrindole (δ)): 55 ± 5.1 nM
- Ki (κ opioid receptor; Ki [3H] U69,593 (κ)): 11 ± 0.69 nM

Compound: CC1C2Cc3ccc(C(=O)c4ccccc4)cc3C1(C)CCN2CC1CC1 (stereo not drawn) [Example 17]
- Ki (δ opioid receptor; Ki [3H] Naltrindole (δ)): 490 ± 43 nM
- Ki (κ opioid receptor; Ki [3H] U69,593 (κ)): 19 ± 2.6 nM

Compound: CC1C2Cc3ccc(C(=NO)c4ccccc4)cc3C1(C)CCN2CC1CC1 (stereo not drawn) [Example 18]
- Ki (δ opioid receptor; Ki [3H] Naltrindole (δ)): 180 ± 15 nM
- Ki (κ opioid receptor; Ki [3H] U69,593 (κ)): 7.2 ± 0.4 nM

Compound: CC1C2Cc3ccc(NC=S)cc3C1(C)CCN2CC1CC1 (stereo not drawn) [Example 20]
- Ki (δ opioid receptor; Ki [3H] Naltrindole (δ)): 16 ± 0.3 nM
- Ki (κ opioid receptor; Ki [3H] U69,593 (κ)): 0.63 ± 0.15 nM

Compound: CC1C2C(=O)c3ccc(C#N)cc3C1(C)CCN2CC1CC1 (stereo not drawn) [Example 22]
- Ki (δ opioid receptor; [3H] Naltrindole (δ)): 3400 ± 410 nM
- Ki (κ opioid receptor; [3H] U69,593 (κ)): 59 ± 0.77 nM

Compound: CCC12CCN(CC3CC3)C(C(=O)c3ccc(C(N)=O)cc31)C2C (stereo not drawn) [Example 24]
- Ki (δ opioid receptor; read-out: [3H] Naltrindole (δ)): 9.8 ± 0.5 nM
- Ki (κ opioid receptor; read-out: [3H] U69,593 (κ)): 0.7 ± 0.08 nM

Compound: C[C@H]1[C@H]2Cc3ccc(CN)cc3[C@]1(C)CCN2C[C@@H]1CCCO1 [Example 29]
- Ki (δ opioid receptor; [3H] Naltrindole (δ)): 300 ± 27 nM
- Ki (κ opioid receptor; [3H] U69,593 (κ)): 18 ± 1.9 nM

Compound: NC(=O)c1ccc2c3c1OC1C(=O)CCC4(O)C(C2)N(CC2CC2)CCC314 (stereo not drawn) [Example 32]
- Ki (δ opioid receptor; read-out: [3H] Naltrindole (δ)): 110 ± 8.1 nM
- Ki (κ opioid receptor; read-out: [3H] U69,593 (κ)): 22 ± 0.85 nM
- Ki (μ opioid receptor; read-out: [3H] DAMGO (μ)): 1.9 ± 0.21 nM

Compound: CCOC(=O)c1ccc2c3c1OC1C(=O)CCC4(O)C(C2)N(CC2CC2)CCC314 (stereo not drawn) [Example 33]
- Ki (δ opioid receptor; read-out: [3H] Naltrindole (δ)): 970 ± 155 nM
- Ki (κ opioid receptor; read-out: [3H] U69,593 (κ)): 16 ± 0.7 nM
- Ki (μ opioid receptor; read-out: [3H] DAMGO (μ)): 24 ± 1.7 nM

Compound: CC1C2Cc3ccc(CC#N)cc3C1(C)CCN2CC1CC1 (stereo not drawn) [Example 38]
- Ki (human δ opioid receptor): 2000 ± 685 nM
- Ki (human κ opioid receptor): 2.9 ± 0.36 nM
- Ki (human μ opioid receptor): 3.3 ± 1.5 nM

Compound: CC1C2Cc3ccc(C=NO)cc3C1(C)CCN2CC1CC1 (stereo not drawn) [Example 39]
- Ki (human δ opioid receptor): 140 ± 15 nM
- Ki (human κ opioid receptor): 0.73 ± 0.03 nM
- Ki (human μ opioid receptor): 18 ± 1.8 nM

Compound: CCC12CCN(CC3CC3)C(C(=O)c3ccc(NC=O)cc31)C2C (stereo not drawn) [Example 40]
- Ki (δ opioid receptor; read-out: [3H] Naltrindole (δ)): 52 ± 3.4 nM
- Ki (κ opioid receptor; read-out: [3H] U69,593 (κ)): 1.2 ± 0.11 nM

Compound: N#Cc1ccc2c(c1O)[C@]13CCN(CC4CCC4)[C@H](C2)[C@]1(O)CCC(=O)C3 [Example 43]
- Ki (human δ opioid receptor): 82 ± 24 nM
- Ki (human κ opioid receptor): 2.6 ± 0.21 nM
- Ki (human μ opioid receptor): 0.35 ± 0.092 nM

Compound: Oc1ccc2c(c1)C13CCCCC1(O)C(C2)N(CC1CCC1)CC3 (stereo not drawn) [butorphanol, Butorphanol, reference compound]
- Ki (human δ opioid receptor): 12 ± 3.8 nM
- Ki (human κ opioid receptor): 0.22 ± 0.023 nM

Compound: Cyclazocine [(±)-Cyclazocine, reference compound]
- duration of action (antinociception, mouse writhing test) (mice): ca. 2 hr
- ED50 in the mouse acetic acid writhing test (mice): 2.9 nmol
- Ki (μ opioid receptor; read-out: [3H] DAMGO (μ)): 0.32 ± 0.02 nM

Source: patent publication US9932349B2 (priority 2000, dated 2018)
